Like-named read-outs stand apart in the source and are kept apart here. Each block holds one compound with its values, some of them ahead of it.
Assays:
Experiment in all cases: CellTiter Glo cell viability assay
[1] = system: Colon SW_480; assay type: cell-based, human; settings: for IC50: Homo sapiens
[2] = system: Breast 4T1; assay type: cell-based; settings: Table 5B: 11 dilutions 3-0.00001 μM; Exp N
Description: (§1) 1.7*10^3 cells/well were seeded in quadruplicates in 96-well plate after plating. Drugs were added at 5 μM and 2-fold dilutions over 18 concentrations (0.000038146-5 […] range) to generate a dose-response curve. Cell growth was assessed on day 1, 3 and 5 after drug treatments using the CellTiter Glo Luminescence Cell Viability Assay (Promega) according to manufacturer's protocol. Thermo Scientific Varioskan LUX Multimode Microplate instrument was used for plate reading. Data are expressed as mean luminescence (arbitrary units) ±S.D.
(§2) Cell Viability Assays were employed to determine the concentration of Compound 1 (KYN-001) and analogues where the response is reduced by half. For each treatment of cancer cells, 1, 2, 5, 10 and 20 μM solutions of compounds were applied. GraphPad Prism 7 software was used to fit dose response curves. Relative Luminescence Units were plotted against the log values of the doses used and the nonlinear regression model was used for data analysis.

[3] = system: Breast MCF7; assay type: cell-based, human; settings: for IC50: Homo sapiens, MCF7, 72 h, 3 Days of treatment, 18 2-fold dilutions 5-0.00003 μM
Method in brief: (§3)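 Cells seeded at 1.7*10^3/well in quadruplicate; compounds at 18 two-fold dilutions from 5 μM (0.000038146-5 μM), or at 1, 2, 5, 10 and 20 μM. CellTiter Glo luminescence read on days 1, 3 and 5 after treatment. IC50 by nonlinear regression of luminescence versus log dose.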

[4] = system: Lung NCI-H1299; assay type: cell-based, human; settings: for IC50: Homo sapiens, NCI-H1299, 72 h, 18 2-fold dilutions 5-0.00003 μM
Method in brief: as §3

[5] = system: Ewing's Sarcoma HTB-166; assay type: cell-based, human; settings: for IC50: Homo sapiens
Method in brief: as §3

[6] = system: Pancreatic CAPAN-2; assay type: cell-based, human; settings: for IC50: Homo sapiens, Capan-2, 72 h, 3 Days of treatment, 18 2-fold dilutions 5-0.00003 μM
Method in brief: as §3

[7] = system: Pharynx FADU; assay type: cell-based, human; settings: for IC50: Homo sapiens
Method in brief: as §3

[8] = system: Lung NCI-H1437; assay type: cell-based, human; settings: for IC50: Homo sapiens
Method in brief: as §3

[9] = system: Bladder HT-1197; assay type: cell-based, human; settings: for IC50: Homo sapiens
Method in brief: as §3

[10] = system: Osteosarcomas KHOS_312H; assay type: cell-based, human; settings: for IC50: Homo sapiens, 72 h, 3 Days of treatment, 18 2-fold dilutions 5-0.00003 μM
Method in brief: as §3

[11] = system: Tongue SCC-15; assay type: cell-based, human; settings: for IC50: Homo sapiens, SCC-15, 72 h, 3 Days of treatment, 18 2-fold dilutions 5-0.00003 μM
Method in brief: as §3

[12] = system: Lung NCI-H596; assay type: cell-based, human; settings: for IC50: Homo sapiens, NCI-H596, 72 h, 3 Days of treatment, 18 2-fold dilutions 5-0.00003 μM
Method in brief: as §3

[13] = system: Liver SNU-423; assay type: cell-based, human; settings: for IC50: Homo sapiens
Method in brief: as §3

[14] = system: Kidney HTB-45; assay type: cell-based, human; settings: for IC50: Homo sapiens, 72 h, 3 Days of treatment, 18 2-fold dilutions 5-0.00003 μM
Method in brief: as §3

[15] = system: Pancreatic HPAFII; assay type: cell-based, human; settings: for IC50: Homo sapiens
Method in brief: as §3

[16] = system: Kidney 786-O; assay type: cell-based, human; settings: for IC50: Homo sapiens, 786-0, 72 h, 3 Days of treatment, 18 2-fold dilutions 5-0.00003 μM
Method in brief: as §3

[17] = system: Pancreatic BxPC3; assay type: cell-based, human; settings: for IC50: Homo sapiens
Method in brief: as §3

[18] = system: Fibrosarcomas SW 684; assay type: cell-based, human; settings: for IC50: Homo sapiens, SW684, 72 h, 3 Days of treatment, 18 2-fold dilutions 5-0.00003 μM
Method in brief: as §3

[19] = system: Rhabomyosarcoma A-204; assay type: cell-based; settings: Homo sapiens
Description: as §1, §2
(§4) The protocol for cell proliferation was optimized for Compound 8 (KYN-119) to enable a more accurate assessment of its low IC50 value. In this protocol, 18 dosages (2 fold dilutions ranging from 0.000038146 to 5 μM) were applied to cells seeded in 96-well plates, and Luminescence was measured after 1, 3 and 5 days upon treatments.

[20] = system: Bladder RT4; assay type: cell-based; settings: Homo sapiens
Description: as §1, §2, §4

[21] = system: Kidney 769-P; assay type: cell-based; settings: Homo sapiens
Description: as §1, §2, §4

[22] = SW480, 72 h, 3 Days of treatment, 18 2-fold dilutions 5-0.00003 μM, read-out: Average IC50
[23] = SW480/CCL-228, 11 dilutions 3-0.00001 μM, read-out: IC50
[24] = 3 Days of treatment, read-out: Average IC50
[25] = Table 4: 3 Days of treatment, Average (1, 8) or single Exp A-D, read-out: IC50
[26] = 72 h, 3 Days of treatment, 18 2-fold dilutions 5-0.00003 μM, read-out: Average IC50
[27] = RD-ES/HTB-166, 11 dilutions 3-0.00001 μM, read-out: IC50
[28] = FaDu, 72 h, 3 Days of treatment, 18 2-fold dilutions 5-0.00003 μM, read-out: Average IC50
[29] = Fadu/HTB-43, 11 dilutions 3-0.00001 μM, read-out: IC50
[30] = NCI-H1437, 72 h, 3 Days of treatment, 18 2-fold dilutions 5-0.00003 μM, read-out: Average IC50
[31] = NCI-H1437/CRL-5872, 11 dilutions 3-0.00001 μM, read-out: IC50
[32] = HT1197, 72 h, 3 Days of treatment, 18 2-fold dilutions 5-0.00003 μM, read-out: Average IC50
[33] = HT1197, HT-1197/CRL-1473, 11 dilutions 3-0.00001 μM, read-out: IC50
[34] = SNU-423, 72 h, 3 Days of treatment, 18 2-fold dilutions 5-0.00003 μM, read-out: Average IC50
[35] = SNU-423/CRL-2238, 11 dilutions 3-0.00001 μM, read-out: IC50
[36] = HPAF-II, 72 h, 3 Days of treatment, 18 2-fold dilutions 5-0.00003 μM, read-out: Average IC50
[37] = HPAF-II/CRL-1997, 11 dilutions 3-0.00001 μM, read-out: IC50
[38] = BXPC-3, 72 h, 3 Days of treatment, 18 2-fold dilutions 5-0.00003 μM, read-out: Average IC50
[39] = BxPC-3/CRL-1687, 11 dilutions 3-0.00001 μM, read-out: IC50
[40] = A204, A-204/HTB-82, 11 dilutions 3-0.00001 μM, read-out: IC50
[41] = RT4/HTB-2, 11 dilutions 3-0.00001 μM, read-out: IC50
[42] = 769-P/CRL-1933, 11 dilutions 3-0.00001 μM, read-out: IC50
[43] = IC50 of 1 [KYN-001] vs 8 [KYN-119], 3 Days

SMILES: CCOc1cc(O)cc(/C=C/c2ccc(O)c(O)c2)c1CC=C(C)C [Compound 20, (E)-4-(3-Ethoxy-5-hydroxy-2-(3-methylbut-2-en-1-yl)styryl)benzene-1,2-diol]
IC50 [1, 23]: 158 nM
IC50 [5, 27]: 338 nM
IC50 [7, 29]: 80.1 nM
IC50 [8, 31]: 73.2 nM
IC50 [9, 33]: 61.7 nM
IC50 [13, 35]: 119 nM
IC50 [15, 37]: 638 nM
IC50 [17, 39]: 1410 nM
IC50 [19, 40]: 131 nM
IC50 [20, 41]: 2010 nM
IC50 [21, 42]: 174 nM

SMILES: COc1cc(/C=C/c2cc(O)cc(OC)c2CC=C(C)C)ccc1NC=O [Compound 27, (E)-N-(4-(5-hydroxy-3-methoxy-2-(3-methylbut-2-en-1-yl)styryl)-2-methoxyphenyl)formamide]
IC50 [1, 23]: 89.6 nM
IC50 [2]: 29.2 nM
IC50 [5, 27]: 133 nM
IC50 [7, 29]: 28.6 nM
IC50 [8, 31]: 32.2 nM
IC50 [9, 33]: 17.1 nM
IC50 [13, 35]: 53.5 nM
IC50 [15, 37]: 102 nM
IC50 [17, 39]: 302 nM
IC50 [19, 40]: 52.4 nM
IC50 [20, 41]: 453 nM
IC50 [21, 42]: 110 nM

SMILES: CCOc1cc(O)cc(/C=C/c2ccc(NC=O)c(OC)c2)c1CC=C(C)C [Compound 28, (E)-N-(4-(3-Ethoxy-5-hydroxy-2-(3-methylbut-2-en-1-yl)styryl)-2-methoxyphenyl)formamide]
IC50 [1, 23]: 30 nM
IC50 [5, 27]: 65.1 nM
IC50 [7, 29]: 11.8 nM
IC50 [8, 31]: 25.9 nM
IC50 [9, 33]: 12.2 nM
IC50 [13, 35]: 27.5 nM
IC50 [15, 37]: 111 nM
IC50 [17, 39]: 175 nM
IC50 [19, 40]: 25.3 nM
IC50 [20, 41]: 463 nM
IC50 [21, 42]: 40.1 nM

Further lines, with some results ahead:

IC50 [2]: 117 nM
IC50 [3]: 694 nM
IC50 [4, 24]: 62.4 nM
IC50 [4, 25]: 64.2 nM
IC50 [5, 26]: 257 nM
IC50 [5, 27]: 310 nM
IC50 [8, 30]: 347 nM
IC50 [8, 31]: 143 nM
IC50 [12]: 303 nM
IC50 [13, 34]: 33.8 nM
IC50 [13, 35]: 203 nM
IC50 [16]: 334 nM
IC50 [17, 38]: 1060 nM
IC50 [17, 39]: 944 nM
IC50 [19, 40]: 199 nM
SMILES: COc1cc(/C=C/c2cc(O)cc(OC)c2CC=C(C)C)ccc1O [Compound 1, (E)-3-(4-hydroxy-3-methoxystyryl)-5-methoxy-4-(3-methylbut-2-en-1-yl)phenol]
IC50 [1, 22]: 179 nM
IC50 ([1]; SW480, 72 h, Day 3 upon drug treatment, 10 dosages 0.0001-20 μM, read-out: IC50): 298 nM
IC50 [1, 23]: 225 nM
IC50 [6]: 182 nM
IC50 [7, 28]: 74.4 nM
IC50 [7, 29]: 139 nM
IC50 [9, 32]: 258 nM
IC50 [9, 33]: 108 nM
IC50 [10]: 356 nM
IC50 [11]: 17 nM
IC50 [14]: 1730 nM
IC50 [15, 36]: 1070 nM
IC50 [15, 37]: 417 nM
IC50 [18]: 55.2 nM
IC50 [20, 41]: 1380 nM
IC50 [21, 42]: 363 nM

IC50 [3]: 136 nM
Fold IC50 [3, 43]: 5.1
IC50 [4, 24]: 8.56 nM
IC50 [4, 25]: 8.56 nM
Fold IC50 [4, 43]: 7.3
IC50 [5, 26]: 49.2 nM
IC50 [5, 27]: 163 nM
Fold IC50 [5, 43]: 5.2
IC50 [8, 30]: 16.6 nM
IC50 [8, 31]: 32.7 nM
Fold IC50 [8, 43]: 21
IC50 [12]: 115 nM
Fold IC50 [12, 43]: 2.6
IC50 [13, 34]: 6.23 nM
IC50 [13, 35]: 79.7 nM
Fold IC50 [13, 43]: 5.4
IC50 [16]: 64.8 nM
Fold IC50 [16, 43]: 5.1
IC50 [17, 38]: 355 nM
IC50 [17, 39]: 387 nM
Fold IC50 [17, 43]: 3.0
IC50 ([19]; A204, 72 h, 3 Days of treatment, 18 2-fold dilutions 5-0.00003 μM, read-out: Average IC50): 30.7 nM
IC50 [19, 40]: 67.8 nM
SMILES: CCOc1cc(O)cc(/C=C/c2ccc(O)c(OC)c2)c1CC=C(C)C [Compound 8, (E)-3-Ethoxy-5-(4-hydroxy-3-methoxystyryl)-4-(3-methylbut-2-en-1-yl)phenol]
IC50 [1, 22]: 17.9 nM
IC50 [1, 23]: 109 nM
Fold IC50 [1, 43]: 10
IC50 [6]: 9.75 nM
Fold IC50 [6, 43]: 19
IC50 [7, 28]: 37.1 nM
IC50 [7, 29]: 54.1 nM
Fold IC50 [7, 43]: 2.0
IC50 [9, 32]: 11.5 nM
IC50 [9, 33]: 48.5 nM
Fold IC50 [9, 43]: 22
IC50 [10]: 36.7 nM
Fold IC50 [10, 43]: 9.7
IC50 [11]: 14.9 nM
Fold IC50 [11, 43]: 1.1
IC50 [14]: 463 nM
Fold IC50 [14, 43]: 3.7
IC50 [15, 36]: 403 nM
IC50 [15, 37]: 242 nM
Fold IC50 [15, 43]: 2.7
IC50 [18]: 4.63 nM
Fold IC50 [18, 43]: .12
IC50 [20, 26]: 1670 nM
IC50 [20, 41]: 968 nM
IC50 ([21]; 769-P, 72 h, 3 Days of treatment, 18 2-fold dilutions 5-0.00003 μM, read-out: Average IC50): 33.7 nM
IC50 [21, 42]: 109 nM
